# Measured values reported in patent publication US20230041563A1, “N-(1,3,4-OXADIAZOL-2-YL)ARYLCARBOXAMIDES OR SALTS THEREOF, PREPARATION METHODS, HERBICIDAL COMPOSITIONS AND USES THEREOF” (priority 2018, published 2023).
# How the values were obtained:
# Type in all cases: in vivo
# Abutilon theophrasti = experiment: Weeding effect in post-emergence stage (greenhouse pot spray)
# In short: (§1)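 Fresh-weight control rate was assessed 3 weeks after post-emergence spray-tower application at doses of 500–15 g a.i./ha, triplicate. Weeds were treated at the 2–3 leaf stage, 2 weeks post-sowing, using acetone solutions with Tween 80 plus 1.5 L/ha methyl oleate emulsifiable concentrate.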
# Digitaria sanguinalis = experiment: as above
# In short: as §1
# Echinochloa crusgalli = experiment: as above
# In short: as §1
# Setaria viridis = experiment: as above; conditions: Table 3, dose 60 g a.i./ha
# In short: as §1
# Amaranthus retroflexus = experiment: as above
# In short: as §1
# Stellaria media = experiment: as above
# In short: as §1
# Echinochloa crusgali = experiment: Transplanted rice safety evaluation and weed control effect evaluation in rice field; conditions: Table 7, dose 125 g a.i./ha, 14 days after treatment
# In short: (§2)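 Paddy-soil pots, seeds sown and flooded (0.5-1 cm, then 3-4 cm water); Sagittaria grown from tubers. WP or SC dilutions dripped on at 0.5-leaf stage (Sagittaria at primary leaf). Visual 0-5 scoring of weeds at 14 days, rice at 21 days.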
# Monochoria vaginalis = experiment: as above; conditions: Table 7, dose 125 g a.i./ha, 14 days after treatment
# In short: as §2
# Scirpus juncoides = experiment: as above; conditions: Table 7, dose 125 g a.i./ha, 14 days after treatment
# In short: as §2
# weeds = experiment: Actual control effects and combined effects of mixtures of active ingredients (i) and (ii), stem-leaf treatment, Gowing method; conditions: 20 days
smiles,measurement,setting,value
CCSc1c(C(F)(F)F)ccc(C(=O)Nc2nnc(C)o2)c1F [Compound 1-4],Abutilion theophrasti (activity level),"Abutilon theophrasti; Table 2, dose 125 g a.i./ha",5 (Level 5: growth control rate is above 85%)
same,Abutilion theophrasti (activity level),"Abutilon theophrasti; Table 2, dose 250 g a.i./ha",5 (Level 5: growth control rate is above 85%)
same,Abutilon theophrasti (activity level),"Abutilon theophrasti; Table 3, dose 60 g a.i./ha",5 (Level 5: growth control rate is above 85%)
same,Digitaria sanguinalis (activity level),"Digitaria sanguinalis; Table 2, dose 125 g a.i./ha",5 (Level 5: growth control rate is above 85%)
same,Digitaria sanguinalis (activity level),"Digitaria sanguinalis; Table 2, dose 250 g a.i./ha",5 (Level 5: growth control rate is above 85%)
same,Digitaria sanguinahs (activity level),"Digitaria sanguinalis; Table 3, dose 60 g a.i./ha",5 (Level 5: growth control rate is above 85%)
same,Echinochloa crusgah (activity level),"Echinochloa crusgalli; Table 2, dose 125 g a.i./ha",5 (Level 5: growth control rate is above 85%)
same,Echinochloa crusgah (activity level),"Echinochloa crusgalli; Table 2, dose 250 g a.i./ha",5 (Level 5: growth control rate is above 85%)
same,Setaria viridis (activity level),Setaria viridis,5 (Level 5: growth control rate is above 85%)
same,Amaranthus retroflexus (activity level),"Amaranthus retroflexus; Table 2, dose 125 g a.i./ha",5 (Level 5: growth control rate is above 85%)
same,Amaranthus retroflexus (activity level),"Amaranthus retroflexus; Table 2, dose 250 g a.i./ha",5 (Level 5: growth control rate is above 85%)
same,Stellaria media (activity level),"Stellaria media; Table 2, dose 125 g a.i./ha",5 (Level 5: growth control rate is above 85%)
same,Stellaria media (activity level),"Stellaria media; Table 2, dose 250 g a.i./ha",5 (Level 5: growth control rate is above 85%)
same,Echinochloa crusgali (activity level),Echinochloa crusgali,5 (Level 5: growth control rate is above 85%)
same,Monochoria vaginalis (activity level),Monochoria vaginalis,5 (Level 5: growth control rate is above 85%)
same,Scirpus juncoides (activity level),Scirpus juncoides,5 (Level 5: growth control rate is above 85%)
same,Control effect of (i) alone at corresponding dose,"weeds; Cyperus difformis, (i) 0.3 g a.i./mu",4.1%
same,Control effect of (i) alone at corresponding dose,"weeds; Cyperus difformis, (i) 1 g a.i./mu",6.3%
same,Control effect of (i) alone at corresponding dose,"weeds; Cyperus difformis, (i) 1.5 g a.i./mu",9.2%
same,Control effect of (i) alone at corresponding dose,"weeds; Cyperus difformis, (i) 3 g a.i./mu",15.2%
same,Control effect of (i) alone at corresponding dose,"weeds; Cyperus difformis, (i) 6 g a.i./mu",25.6%
same,Control effect of (i) alone at corresponding dose,"weeds; Cyperus difformis, (i) 9 g a.i./mu",32.1%
same,Control effect of (i) alone at corresponding dose,"weeds; Echinochloa phyllopogon, (i) 0.6 g a.i./mu",20.5%
same,Control effect of (i) alone at corresponding dose,"weeds; Echinochloa phyllopogon, (i) 0.7 g a.i./mu",25.1%
same,Control effect of (i) alone at corresponding dose,"weeds; Echinochloa phyllopogon, (i) 0.75 g a.i./mu",30.3%
same,Control effect of (i) alone at corresponding dose,"weeds; Echinochloa phyllopogon, (i) 1 g a.i./mu",36.6%
same,Control effect of (i) alone at corresponding dose,"weeds; Echinochloa phyllopogon, (i) 1.5 g a.i./mu",41.5%
same,Control effect of (i) alone at corresponding dose,"weeds; Echinochloa phyllopogon, (i) 1.6 g a.i./mu",45.3%
same,Control effect of (i) alone at corresponding dose,"weeds; Echinochloa phyllopogon, (i) 3 g a.i./mu",60.2%
same,Control effect of (i) alone at corresponding dose,"weeds; Leptochloa chinensis, (i) 3 g a.i./mu",18.6%
same,Control effect of (i) alone at corresponding dose,"weeds; Leptochloa chinensis, (i) 15 g a.i./mu",45.6%
same,Control effect of (i) alone at corresponding dose,"weeds; Monochoria vaginalis, (i) 0.8 g a.i./mu",5.8%
same,Control effect of (i) alone at corresponding dose,"weeds; Monochoria vaginalis, (i) 1 g a.i./mu",6.2%
same,Control effect of (i) alone at corresponding dose,"weeds; Monochoria vaginalis, (i) 1.8 g a.i./mu",8.6%
same,Control effect of (i) alone at corresponding dose,"weeds; Monochoria vaginalis, (i) 2.4 g a.i./mu",10.2%
same,Control effect of (i) alone at corresponding dose,"weeds; Monochoria vaginalis, (i) 3 g a.i./mu",12.7%
same,Control effect of (i) alone at corresponding dose,"weeds; Monochoria vaginalis, (i) 3.5 g a.i./mu",13.3%
same,Control effect of (i) alone at corresponding dose,"weeds; Monochoria vaginalis, (i) 5 g a.i./mu",19.6%
same,Control effect of (i) alone at corresponding dose,"weeds; Monochoria vaginalis, (i) 6 g a.i./mu",28.6%
same,Control effect of (i) alone at corresponding dose,"weeds; Monochoria vaginalis, (i) 10 g a.i./mu",31.7%
same,Control effect of (i) alone at corresponding dose,"weeds; Monochoria vaginalis, (i) 15 g a.i./mu",40.5%
same,Control effect of (i) alone at corresponding dose,"weeds; Sagittaria trifolia L., (i) 0.75 g a.i./mu",16.3%
same,Control effect of (i) alone at corresponding dose,"weeds; Sagittaria trifolia L., (i) 3 g a.i./mu",60.3%
